{"source": "paper PMC3699650", "about": "“Structural Insights into the Abscisic Acid Stereospecificity by the ABA Receptors PYR/PYL/RCAR” (PLoS ONE, 2013)", "key": {"[1]": {"biological_target": "T1, PYL9 (with HAB1) (Arabidopsis thaliana, UniProt Q84MC7)", "T1 construct": "PYL9 from E. coli BL21(DE3), pET-28a or pGEX-4T-2 (TEV site), IMAC and SEC, monomer; HAB1 residues 169-511, GST cut by TEV; with Protein phosphatase 2C 16", "T1 sequence (Q84MC7 1-187)": "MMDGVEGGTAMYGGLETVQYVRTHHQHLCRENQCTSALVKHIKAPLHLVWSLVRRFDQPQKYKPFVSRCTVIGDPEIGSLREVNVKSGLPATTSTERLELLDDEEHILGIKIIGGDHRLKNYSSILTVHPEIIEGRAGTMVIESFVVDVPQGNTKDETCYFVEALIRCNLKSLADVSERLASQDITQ", "T1 sequence (Q9CAJ0 169-511 partner)": "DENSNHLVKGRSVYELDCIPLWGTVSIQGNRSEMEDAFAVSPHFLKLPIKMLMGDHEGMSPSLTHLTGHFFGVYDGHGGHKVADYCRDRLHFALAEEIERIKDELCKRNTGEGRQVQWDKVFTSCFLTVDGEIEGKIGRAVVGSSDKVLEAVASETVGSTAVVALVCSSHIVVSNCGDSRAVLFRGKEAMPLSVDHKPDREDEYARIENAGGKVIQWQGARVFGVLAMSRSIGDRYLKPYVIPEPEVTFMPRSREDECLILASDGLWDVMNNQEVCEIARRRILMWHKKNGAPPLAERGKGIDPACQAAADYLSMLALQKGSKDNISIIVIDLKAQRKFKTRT", "assay": "HAB1 phosphatase inhibition assay (phosphopeptide, molybdate)", "type": "biochemical"}, "[2]": {"biological_target": "T2, PYL2 (with HAB1) (Arabidopsis thaliana, UniProt O80992)", "T2 construct": "PYL2 from E. coli BL21(DE3), pET-28a or pGEX-4T-2 (TEV site), IMAC and SEC; HAB1 residues 169-511, GST cut by TEV; with Protein phosphatase 2C 16", "T2 sequence (O80992 1-190)": "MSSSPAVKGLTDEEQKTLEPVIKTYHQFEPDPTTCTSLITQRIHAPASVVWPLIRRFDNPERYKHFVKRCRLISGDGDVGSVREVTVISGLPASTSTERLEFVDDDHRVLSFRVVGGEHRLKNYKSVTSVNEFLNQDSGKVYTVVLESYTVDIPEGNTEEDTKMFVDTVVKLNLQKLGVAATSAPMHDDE", "T2 sequence (Q9CAJ0 169-511 partner)": "T1 sequence (Q9CAJ0 169-511 partner)", "assay": "HAB1 phosphatase inhibition assay (phosphopeptide, molybdate)", "type": "biochemical"}, "[3]": {"biological_target": "T3, PYL3 (Arabidopsis thaliana, UniProt Q9SSM7)", "T3 construct": "apo mainly dimer", "T3 sequence (Q9SSM7 1-209)": "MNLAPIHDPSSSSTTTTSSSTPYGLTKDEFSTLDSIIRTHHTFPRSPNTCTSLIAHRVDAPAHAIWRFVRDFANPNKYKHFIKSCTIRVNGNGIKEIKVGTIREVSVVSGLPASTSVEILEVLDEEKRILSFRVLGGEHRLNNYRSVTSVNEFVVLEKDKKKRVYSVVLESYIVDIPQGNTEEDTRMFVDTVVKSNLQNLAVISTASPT", "assay": "isothermal titration calorimetry", "type": "binding", "settings": "20 °C, 20 mM Tris-HCl pH 8.0, 150 mM NaCl; 0.3 mM (−)-ABA into 0.22 mM PYL3"}, "[4]": {"biological_target": "T4, PYL8 (with HAB1) (Arabidopsis thaliana, UniProt Q9FGM1)", "T4 construct": "PYL8 from E. coli BL21(DE3), pET-28a or pGEX-4T-2 (TEV site), IMAC and SEC; HAB1 residues 169-511, GST cut by TEV; with Protein phosphatase 2C 16", "T4 sequence (Q9FGM1 1-188)": "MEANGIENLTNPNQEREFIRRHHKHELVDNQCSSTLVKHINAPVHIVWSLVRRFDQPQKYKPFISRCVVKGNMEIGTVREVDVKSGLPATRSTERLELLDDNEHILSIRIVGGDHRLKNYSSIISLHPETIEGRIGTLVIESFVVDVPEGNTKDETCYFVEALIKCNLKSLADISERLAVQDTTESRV", "T4 sequence (Q9CAJ0 169-511 partner)": "T1 sequence (Q9CAJ0 169-511 partner)", "assay": "HAB1 phosphatase inhibition assay (phosphopeptide, molybdate)", "type": "biochemical"}, "[5]": {"biological_target": "T5, PYL10 (with HAB1) (Arabidopsis thaliana, UniProt Q8H1R0)", "T5 construct": "PYL10 from E. coli BL21(DE3), pET-28a or pGEX-4T-2 (TEV site), IMAC and SEC; HAB1 residues 169-511, GST cut by TEV; with Protein phosphatase 2C 16", "T5 sequence (Q8H1R0 1-183)": "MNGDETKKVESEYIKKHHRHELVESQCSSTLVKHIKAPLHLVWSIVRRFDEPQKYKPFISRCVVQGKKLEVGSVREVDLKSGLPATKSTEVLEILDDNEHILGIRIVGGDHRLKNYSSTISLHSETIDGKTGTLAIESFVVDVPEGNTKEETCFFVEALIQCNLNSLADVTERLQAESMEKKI", "T5 sequence (Q9CAJ0 169-511 partner)": "T1 sequence (Q9CAJ0 169-511 partner)", "assay": "HAB1 phosphatase inhibition assay (phosphopeptide, molybdate)", "type": "biochemical"}, "[6]": {"biological_target": "T6, PYL4 (with HAB1) (Arabidopsis thaliana, UniProt O80920)", "T6 construct": "PYL4 from E. coli BL21(DE3), pET-28a or pGEX-4T-2 (TEV site), IMAC and SEC; HAB1 residues 169-511, GST cut by TEV; with Protein phosphatase 2C 16", "T6 sequence (O80920 1-207)": "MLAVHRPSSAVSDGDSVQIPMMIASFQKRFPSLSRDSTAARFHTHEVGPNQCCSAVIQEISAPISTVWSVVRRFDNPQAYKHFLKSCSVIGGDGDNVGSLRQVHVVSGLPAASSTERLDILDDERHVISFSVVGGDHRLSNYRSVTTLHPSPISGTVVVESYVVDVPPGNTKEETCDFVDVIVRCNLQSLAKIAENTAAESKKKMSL", "T6 sequence (Q9CAJ0 169-511 partner)": "T1 sequence (Q9CAJ0 169-511 partner)", "assay": "HAB1 phosphatase inhibition assay (phosphopeptide, molybdate)", "type": "biochemical"}, "[7]": {"biological_target": "T7, PYR1 (with HAB1) (Arabidopsis thaliana, UniProt O49686)", "T7 construct": "PYR1 from E. coli BL21(DE3), pET-28a or pGEX-4T-2 (TEV site), IMAC and SEC; HAB1 residues 169-511, GST cut by TEV; with Protein phosphatase 2C 16", "T7 sequence (O49686 1-191)": "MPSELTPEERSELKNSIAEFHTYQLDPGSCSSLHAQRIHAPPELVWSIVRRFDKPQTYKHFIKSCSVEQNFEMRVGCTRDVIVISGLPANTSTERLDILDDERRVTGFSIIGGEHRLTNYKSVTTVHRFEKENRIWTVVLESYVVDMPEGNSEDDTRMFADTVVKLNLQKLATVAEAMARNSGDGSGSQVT", "T7 sequence (Q9CAJ0 169-511 partner)": "T1 sequence (Q9CAJ0 169-511 partner)", "assay": "HAB1 phosphatase inhibition assay (phosphopeptide, molybdate)", "type": "biochemical"}, "[8]": {"biological_target": "T8, PYL6 (with HAB1) (Arabidopsis thaliana, UniProt Q8S8E3)", "T8 construct": "PYL6 from E. coli BL21(DE3), pET-28a or pGEX-4T-2 (TEV site), IMAC and SEC; HAB1 residues 169-511, GST cut by TEV; with Protein phosphatase 2C 16", "T8 sequence (Q8S8E3 1-215)": "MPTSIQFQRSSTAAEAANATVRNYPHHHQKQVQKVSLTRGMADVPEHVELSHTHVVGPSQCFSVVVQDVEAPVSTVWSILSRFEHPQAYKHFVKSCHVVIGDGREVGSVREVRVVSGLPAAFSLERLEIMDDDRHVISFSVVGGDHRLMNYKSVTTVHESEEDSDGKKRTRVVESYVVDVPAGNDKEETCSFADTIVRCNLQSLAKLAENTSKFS", "T8 sequence (Q9CAJ0 169-511 partner)": "T1 sequence (Q9CAJ0 169-511 partner)", "assay": "HAB1 phosphatase inhibition assay (phosphopeptide, molybdate)", "type": "biochemical"}, "[9]": {"biological_target": "T9, PYL1 (with HAB1) (Arabidopsis thaliana, UniProt Q8VZS8)", "T9 construct": "PYL1 from E. coli BL21(DE3), pET-28a or pGEX-4T-2 (TEV site), IMAC and SEC; HAB1 residues 169-511, GST cut by TEV; with Protein phosphatase 2C 16", "T9 sequence (Q8VZS8 2-221)": "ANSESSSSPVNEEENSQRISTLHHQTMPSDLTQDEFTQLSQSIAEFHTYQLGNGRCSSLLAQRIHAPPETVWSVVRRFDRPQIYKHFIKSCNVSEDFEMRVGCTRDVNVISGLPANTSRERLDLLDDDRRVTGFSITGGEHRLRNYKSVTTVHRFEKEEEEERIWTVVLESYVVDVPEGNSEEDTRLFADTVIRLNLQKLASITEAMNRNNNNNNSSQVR", "T9 sequence (Q9CAJ0 169-511 partner)": "T1 sequence (Q9CAJ0 169-511 partner)", "assay": "HAB1 phosphatase inhibition assay (phosphopeptide, molybdate)", "type": "biochemical"}, "[10]": {"biological_target": "T10, PYL5 (with HAB1) (Arabidopsis thaliana, UniProt Q9FLB1)", "T10 construct": "PYL5 from E. coli BL21(DE3), pET-28a or pGEX-4T-2 (TEV site), IMAC and SEC, monomer; HAB1 residues 169-511, GST cut by TEV; with Protein phosphatase 2C 16", "T10 sequence (Q9FLB1 1-203)": "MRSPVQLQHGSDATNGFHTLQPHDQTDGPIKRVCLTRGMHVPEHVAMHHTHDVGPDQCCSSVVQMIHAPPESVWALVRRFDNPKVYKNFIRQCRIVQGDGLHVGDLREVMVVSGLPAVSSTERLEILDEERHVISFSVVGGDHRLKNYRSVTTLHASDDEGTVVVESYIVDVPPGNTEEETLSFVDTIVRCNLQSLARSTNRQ", "T10 sequence (Q9CAJ0 169-511 partner)": "T1 sequence (Q9CAJ0 169-511 partner)", "assay": "HAB1 phosphatase inhibition assay (phosphopeptide, molybdate)", "type": "biochemical"}, "[11]": {"biological_target": "T1, PYL9 (with HAB1)", "assay": "HAB1 phosphatase inhibition assay", "type": "biochemical", "settings": "Hepes pH 7.5, 30 °C"}}}
{"smiles": "CC1=CC(=O)CC(C)(C)[C@]1(O)/C=C/C(C)=C\\C(=O)O", "note": "[(−)-ABA]", "values": [{"measurement": "IC50", "setting": "[1]", "result": "> 10000", "unit": "nM"}, {"measurement": "IC50", "setting": "[2]", "result": 2500, "unit": "nM"}, {"measurement": "binding affinity", "setting": "[3]", "result": "ITC results showed that the binding affinity of (−)-ABA to PYL3 was less"}, {"measurement": "IC50", "setting": "[4]", "result": 1600, "unit": "nM"}, {"measurement": "IC50", "setting": "[5]", "result": 15000, "unit": "nM"}, {"measurement": "IC50", "setting": "[6]", "result": 480, "unit": "nM"}, {"measurement": "IC50", "setting": "[7]", "result": 4500, "unit": "nM"}, {"measurement": "IC50", "setting": "[8]", "result": 470, "unit": "nM"}, {"measurement": "IC50", "setting": "[9]", "result": 3100, "unit": "nM"}, {"measurement": "IC50", "setting": "[10]", "result": 170, "unit": "nM"}]}
{"smiles": "CC1=CC(=O)CC(C)(C)[C@@]1(O)/C=C/C(C)=C/C(=O)O", "note": "[(+)-ABA]", "values": [{"measurement": "HAB1 phosphatase inhibition assay", "setting": "[11]", "result": "PYL9 can inhibit HAB1 in the presence of (+)-ABA"}]}
